Assay results reported in patent publication US12691065B2, “Liposome formulations for treatment of cancers and drug resistance of cancers” (NanoTech Pharma Inc., priority 2020, dated 2026).

Columns and labels:
MDA-MB-231(R) cells = assay: MTT cytotoxicity of DOX on MDA-MB-231 versus MDA-MB-231(R); format: cell-based, human; details: 48-hour DOX treatment, each dose level
Text: Doxorubicin resistant cell lines of MDA-MB-231 and MCF-7 were developed in house. The resistant variants were generated by repeatedly culturing MDA-MB-231 and MCF-7 cells in the presence of 0.2 μmol/L DOX. These cells that proliferated well in the presence of doxorubicin after several passages qualified as DOX-resistant MDA-MB-231 and MCF-7 cells, which were named as MDA-MB-231(R) and MCF-7(R) cell lines, respectively. Both MDA-MB-231(R) and MCF-7(R) cell lines were characterized against non-DOX treated MDA-MB-231 and MCF-7 cell lines.
The cell seeded plate was incubated for 24 hours at 37° C. and 5% CO2 in a standard cell culture incubator before drug treatment. […] After another 24 hours of incubation, cell viability was assessed by the MTT assay following the manufacture's protocols. Relative percent survival was determined by subtracting absorbance values obtained by media-only wells from drug treated wells and then normalizing to the no-drug control wells (cell only control). The fraction of cells affected (Fa), or cell growth inhibition (%) at each drug concentration was subsequently calculated for each well. The effect of drug combinations was then calculated and processed by a software CompuSyn for drug synergy analysis. The program employs the median-effect analysis algorithm, which produces the Combination Index (CI) value as a quantitative indicator of the degree of synergy. […]

[1] = In-vivo pharmacokinetic study, intravenous; details: free drug solution, CD-1 mice
Text: After intravenous administration, blood was collected at multiple time points for a week by cardiac puncture (3 mice per time point) and placed into EDTA coated micro containers. The samples were centrifuged to separate plasma, and plasma was transferred to another tube.

With `COc1cccc2c1C(=O)c1c(O)c3c(c(O)c1C2=O)C[C@@](O)(C(=O)CO)C[C@@H]3O[C@H]1C[C@H](N)[C@H](O)[C@H](C)O1.Cl` [DOX, Doxorubicin hydrochloride] the “cell viability of MDA-MB-231(R) compared to MDA-MB-231” value (MDA-MB-231(R) cells) was “markedly greater” and the “half-life (T1/2)” value [1] was 30 min.
